Experimental data from the supplement of paper PMC10733146.

Assays:
Assay in all cases: viability relative to DMSO control (fraction); higher = less drug effect (more viable cells)
Conditions in all cases: 48 h
[1] = compound: C[C@H](Nc1ncnc2nc[nH]c12)c1cc2cccc(Cl)c2c(=O)n1-c1ccccc1 [Duvelisib]
Summary of the method: (§1)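 Viability was quantified by CellTiter-Glo luminescence and related to the median of 16 inner DMSO wells. Before that, primary mononuclear tumour cells, fresh or cryopreserved and Ficoll-isolated from blood or bone marrow or prepared from processed lymph node, were plated at 4 × 10^4 cells per well in 384-well plates containing pre-plated compounds at five concentrations, one well each. Plates were incubated in RPMI-1640 with penicillin/streptomycin, L-glutamine and human serum at 37 °C and 5% CO2 for 48 h.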

[2] = compound: Nc1cccc2c1C(=O)N(C1CCC(=O)NC1=O)C2=O [Pomalidomide]
Summary of the method: as §1

[3] = compound: CCc1ccc(/C=C2/SC(=S)NC2=O)cc1
Summary of the method: as §1

[4] = compound: CC1(C)CCC(CN2CCN(c3ccc(C(=O)NS(=O)(=O)c4ccc(NCC5CCOCC5)c([N+](=O)[O-])c4)c(Oc4cnc5[nH]ccc5c4)c3)CC2)=C(c2ccc(Cl)cc2)C1 [Venetoclax]
Summary of the method: as §1

[5] = compound: CCNC(=O)C[C@@H]1N=C(c2ccc(Cl)cc2)c2cc(OC)ccc2-n2c(C)nnc21 [I-BET-762]
Summary of the method: as §1

[6] = compound: O=C1CCC(N2C(=O)c3ccccc3C2=O)C(=O)N1 [Thalidomide]
Summary of the method: as §1

[7] = compound: O=C(Nc1nc2cccc(-c3ccc(CN4CCS(=O)(=O)CC4)cc3)n2n1)C1CC1 [Filgotinib]
Summary of the method: as §1

[8] = compound: O=C(Nc1ccc2[nH]nc(-c3ccncc3)c2c1)[C@@H]1CCN(CC(=O)N2CCN(c3ccc(-c4ncccn4)cc3)CC2)C1
Summary of the method: as §1

[9] = compound: O=C(O)CCCc1ccc(N(CCCl)CCCl)cc1 [Chlorambucil]
Summary of the method: as §1

[10] = compound: O=C(NO)c1cccc(C(=O)NCCc2ccccc2)c1
Summary of the method: as §1

[11] = compound: CC1(C)CCC(c2ccc(Cl)cc2)=C(CN2CCN(c3ccc(C(=O)NS(=O)(=O)c4ccc(N[C@H](CCN5CCOCC5)CSc5ccccc5)c(S(=O)(=O)C(F)(F)F)c4)cc3)CC2)C1 [Navitoclax]
Summary of the method: as §1

[12] = compound: CC[C@]1(O)C[C@@H]2CN(CCc3c([nH]c4ccccc34)[C@@](C(=O)OC)(c3cc4c(cc3OC)N(C)[C@H]3[C@@](O)(C(N)=O)[C@H](O)[C@]5(CC)C=CCN6CC[C@]43[C@@H]65)C2)C1 [Vindesine]
Summary of the method: as §1

[13] = compound: C[C@H](NC(=O)CCC(F)(F)F)C(=O)N[C@@H]1C(=O)N(CCO)c2ncccc2-c2ccccc21
Summary of the method: as §1

[14] = compound: C[C@H]1C[C@@H](n2c(Nc3ccc(OC(F)(F)F)cc3)nc3cc(CCC(=O)O)ccc32)CC(C)(C)C1
Summary of the method: as §1

[15] = compound: COc1cc(C(=O)O)ccc1NC(=O)[C@@H]1N[C@@H](CC(C)(C)C)[C@](C#N)(c2ccc(Cl)cc2F)[C@H]1c1cccc(Cl)c1F [Idasanutlin (RS7388)]
Summary of the method: as §1

primary DLBCL patient cells (S049)
viability ([1]; 0.0016 µM): 0.988 | viability ([1]; 0.008 µM): 0.969 | viability ([1]; 0.04 µM): 0.92 | viability ([1]; 0.2 µM): 0.986 | viability ([1]; 1 µM): 0.81 | viability ([2]; 0.0032 µM): 0.959 | viability ([2]; 0.016 µM): 1.11 | viability ([2]; 0.08 µM): 1 | viability ([2]; 0.4 µM): 0.899 | viability ([2]; 2 µM): 0.948 | viability ([3]; 0.024 µM): 0.744 | viability ([3]; 0.12 µM): 0.798 | viability ([3]; 0.6 µM): 0.902 | viability ([3]; 3 µM): 0.873 | viability ([3]; 15 µM): 0.737 | viability ([4]; 0.00064 µM): 0.898 | viability ([4]; 0.0032 µM): 0.593 | viability ([4]; 0.016 µM): 0.149 | viability ([4]; 0.08 µM): 0.0521 | viability ([4]; 0.4 µM): 0.0447 | viability ([5]; 0.008 µM): 0.982 | viability ([5]; 0.04 µM): 1.02 | viability ([5]; 0.2 µM): 0.987 | viability ([5]; 1 µM): 0.552 | viability ([5]; 5 µM): 0.246 | viability ([6]; 0.032 µM): 0.902 | viability ([6]; 0.16 µM): 0.864 | viability ([6]; 0.8 µM): 0.918 | viability ([6]; 4 µM): 0.968 | viability ([6]; 20 µM): 1.03 | viability ([7]; 0.024 µM): 0.918 | viability ([7]; 0.12 µM): 0.969 | viability ([7]; 0.6 µM): 1.03 | viability ([7]; 3 µM): 0.926 | viability ([7]; 15 µM): 0.203 | viability ([8]; 0.008 µM): 0.611 | viability ([8]; 0.04 µM): 0.53 | viability ([8]; 0.2 µM): 0.396 | viability ([8]; 1 µM): 0.304 | viability ([8]; 5 µM): 0.245 | viability ([9]; 0.032 µM): 0.96 | viability ([9]; 0.16 µM): 0.976 | viability ([9]; 0.8 µM): 1.05 | viability ([9]; 4 µM): 0.952 | viability ([9]; 20 µM): 0.589 | viability ([10]; 0.024 µM): 0.886 | viability ([10]; 0.12 µM): 0.986 | viability ([10]; 0.6 µM): 0.966 | viability ([10]; 3 µM): 1.02 | viability ([10]; 15 µM): 1.05 | viability ([11]; 0.0032 µM): 1 | viability ([11]; 0.016 µM): 0.834 | viability ([11]; 0.08 µM): 0.375 | viability ([11]; 0.4 µM): 0.0676 | viability ([11]; 2 µM): 0.0439

primary AML patient cells (S055)
viability ([1]; 0.0016 µM): 0.937 | viability ([1]; 0.008 µM): 0.954 | viability ([1]; 0.04 µM): 0.893 | viability ([1]; 0.2 µM): 0.862 | viability ([1]; 1 µM): 0.77 | viability ([2]; 0.0032 µM): 0.955 | viability ([2]; 0.016 µM): 0.951 | viability ([2]; 0.08 µM): 0.978 | viability ([2]; 0.4 µM): 0.966 | viability ([2]; 2 µM): 0.975 | viability ([12]; 0.016 µM): 1.1 | viability ([12]; 0.08 µM): 0.777 | viability ([12]; 0.4 µM): 0.448 | viability ([12]; 2 µM): 0.363 | viability ([12]; 10 µM): 0.359 | viability ([13]; 0.016 µM): 1.05 | viability ([13]; 0.08 µM): 1.09 | viability ([13]; 0.4 µM): 1.06 | viability ([13]; 2 µM): 1.08 | viability ([13]; 10 µM): 1 | viability ([6]; 0.032 µM): 0.916 | viability ([6]; 0.16 µM): 0.94 | viability ([6]; 0.8 µM): 0.894 | viability ([6]; 4 µM): 0.931 | viability ([6]; 20 µM): 0.876 | viability ([7]; 0.024 µM): 0.942 | viability ([7]; 0.12 µM): 0.936 | viability ([7]; 0.6 µM): 0.959 | viability ([7]; 3 µM): 0.916 | viability ([7]; 15 µM): 0.594 | viability ([14]; 0.024 µM): 0.953 | viability ([14]; 0.12 µM): 1.03 | viability ([14]; 0.6 µM): 0.997 | viability ([14]; 3 µM): 0.923 | viability ([14]; 15 µM): 0.994 | viability ([15]; 0.032 µM): 0.872 | viability ([15]; 0.16 µM): 0.934 | viability ([15]; 0.8 µM): 0.694 | viability ([15]; 4 µM): 0.389 | viability ([15]; 20 µM): 0.229 | viability ([8]; 0.008 µM): 0.929 | viability ([8]; 0.04 µM): 0.819 | viability ([8]; 0.2 µM): 0.652 | viability ([8]; 1 µM): 0.52 | viability ([8]; 5 µM): 0.498 | viability ([9]; 0.032 µM): 0.993 | viability ([9]; 0.16 µM): 1.04 | viability ([9]; 0.8 µM): 0.988 | viability ([9]; 4 µM): 0.997 | viability ([9]; 20 µM): 0.841 | viability ([10]; 0.024 µM): 0.923 | viability ([10]; 0.12 µM): 1.01 | viability ([10]; 0.6 µM): 0.907 | viability ([10]; 3 µM): 0.975 | viability ([10]; 15 µM): 0.997
